Laboratory results taken from patent publication US9512118B2, “Crystal of fused heterocyclic compound” (TAKEDA PHARMACEUTICAL COMPANY LIMITED, priority 2011, dated 2016).
Values after ≈ are worked out from the molar mass of the structure shown. Where two headings read alike, the source gives them in different places. Values belong to the compound of their own block, whether it stands above or below them.

Columns and labels:
[1] = Study of crystallization from various solvents (solubility at 55° C. and crystal form obtained); assay type: physicochemical; conditions: for solubility: 55 °C, organic solvent or mixture, thermodynamic from solid; for crystal form: dissolved at 55° C., cooled to 0-5° C., stirred 8 hr
Method: This solution was filtered through a filter with 0.22 μm pore size, and cooled to 0-5° C. with stirring. The mixture was stirred for 8 hr under cooling at 0-5° C.

[2] = room temperature
From the text: After stirring for one week, and after stirring for 2 weeks, the crystals of 1-ethyl-7-methyl-3-{4-[(3-methyl-3H-imidazo[4,5-b]pyridin-2-yl)oxy]phenyl}-1,3-dihydro-2H-imidazo[4,5-b]pyridin-2-one formed were collected by filtration, and the crystal form of the crystalline products was confirmed.

[3] = 80° C., 1 week, sealed glass bottle
[4] = 80° C., 2 weeks, sealed glass bottle

appearance [3]: no change
area percentage (%) of HPLC peak area of main form [3]: 99.7%
crystal form [3]: Form G
appearance [4]: no change
area percentage (%) of HPLC peak area of main form [4]: 99.6%
crystal form [4]: Form G
appearance (prestorage): white crystalline
area percentage (%) of HPLC peak area of main form (prestorage): 99.7%
crystal form (prestorage): Form G
Compound: CCn1c(=O)n(-c2ccc(Oc3nc4cccnc4n3C)cc2)c2nccc(C)c21 [Form G, 1-ethyl-7-methyl-3-{4-[(3-methyl-3H-imidazo[4,5-b]pyridin-2-yl)oxy]phenyl}-1,3-dihydro-2H-imidazo[4,5-b]pyridin-2-one]

solubility ([1]; solvent 2-propanol): < 2700 µg/mL
solubility ([1]; solvent acetone): 6500 µg/mL (≈ 16.2 mM)
solubility ([1]; solvent acetonitrile): 8100 µg/mL (≈ 20.2 mM)
solubility ([1]; solvent chloroform): > 200000 µg/mL
solubility ([1]; solvent ethanol): 2600 µg/mL (≈ 6.49 mM)
solubility ([1]; solvent ethyl acetate): 3400 µg/mL (≈ 8.49 mM)
solubility ([1]; solvent methanol): 5600 µg/mL (≈ 14 mM)
solubility ([1]; solvent methylethylketone): 6800 µg/mL (≈ 17 mM)
solubility ([1]; solvent tetrahydrofuran): 26000 µg/mL (≈ 64.9 mM)
solubility ([1]; solvent toluene): 5200 µg/mL (≈ 13 mM)
solubility ([1]; solvent trifluoroethanol): > 200000 µg/mL
crystal form ([1]; crystallized from 2-propanol): Form A
crystal form ([1]; crystallized from acetone): Form A
crystal form ([1]; crystallized from acetonitrile): Form B
crystal form ([1]; crystallized from chloroform): Form A
crystal form ([1]; crystallized from ethanol): Form A
crystal form ([1]; crystallized from ethyl acetate): Form A
crystal form ([1]; crystallized from methanol): Form A
crystal form ([1]; crystallized from methylethylketone): Form A
crystal form ([1]; crystallized from tetrahydrofuran): Form A
crystal form ([1]; crystallized from toluene): Form G
crystal form ([1]; crystallized from trifluoroethanol): Form D
crystal form 1 week later ([2]; suspended in 1-butanol): Form A
crystal form 2 weeks later ([2]; suspended in 1-butanol): Form A
crystal form 1 week later ([2]; suspended in acetone): Form G
crystal form 2 weeks later ([2]; suspended in acetone): Form G
crystal form 1 week later ([2]; suspended in ethyl acetate): Form A + Form G
crystal form 2 weeks later ([2]; suspended in ethyl acetate): Form G
crystal form 1 week later ([2]; suspended in isopropyl alcohol): Form A
crystal form 2 weeks later ([2]; suspended in isopropyl alcohol): Form A
crystal form 1 week later ([2]; suspended in methanol): Form G
crystal form 2 weeks later ([2]; suspended in methanol): Form G
crystal form 1 week later ([2]; suspended in methylethylketone): Form G
crystal form 2 weeks later ([2]; suspended in methylethylketone): Form G
crystal form 1 week later ([2]; suspended in tetrahydrofuran): Form G
crystal form 2 weeks later ([2]; suspended in tetrahydrofuran): Form G
crystal form 1 week later ([2]; suspended in toluene): Form G
crystal form 2 weeks later ([2]; suspended in toluene): Form G
Compound: CCn1c(=O)n(-c2ccc(Oc3nc4cccnc4n3C)cc2)c2nccc(C)c21 [Form A, 1-ethyl-7-methyl-3-{4-[(3-methyl-3H-imidazo[4,5-b]pyridin-2-yl)oxy]phenyl}-1,3-dihydro-2H-imidazo[4,5-b]pyridin-2-one]
